# Assay results: patent US20240384268A1, “Oligonucleotides” (Hudson Institute of Medical Research, priority 2021, published 2024)
# Molecular target: T1, human TLR7 (Homo sapiens, UniProt Q9NYK1)
# T1 construct: HA; host or cells: 293XL-hTLR7-HA (HEK293)
# T1 sequence (Q9NYK1 27-1049): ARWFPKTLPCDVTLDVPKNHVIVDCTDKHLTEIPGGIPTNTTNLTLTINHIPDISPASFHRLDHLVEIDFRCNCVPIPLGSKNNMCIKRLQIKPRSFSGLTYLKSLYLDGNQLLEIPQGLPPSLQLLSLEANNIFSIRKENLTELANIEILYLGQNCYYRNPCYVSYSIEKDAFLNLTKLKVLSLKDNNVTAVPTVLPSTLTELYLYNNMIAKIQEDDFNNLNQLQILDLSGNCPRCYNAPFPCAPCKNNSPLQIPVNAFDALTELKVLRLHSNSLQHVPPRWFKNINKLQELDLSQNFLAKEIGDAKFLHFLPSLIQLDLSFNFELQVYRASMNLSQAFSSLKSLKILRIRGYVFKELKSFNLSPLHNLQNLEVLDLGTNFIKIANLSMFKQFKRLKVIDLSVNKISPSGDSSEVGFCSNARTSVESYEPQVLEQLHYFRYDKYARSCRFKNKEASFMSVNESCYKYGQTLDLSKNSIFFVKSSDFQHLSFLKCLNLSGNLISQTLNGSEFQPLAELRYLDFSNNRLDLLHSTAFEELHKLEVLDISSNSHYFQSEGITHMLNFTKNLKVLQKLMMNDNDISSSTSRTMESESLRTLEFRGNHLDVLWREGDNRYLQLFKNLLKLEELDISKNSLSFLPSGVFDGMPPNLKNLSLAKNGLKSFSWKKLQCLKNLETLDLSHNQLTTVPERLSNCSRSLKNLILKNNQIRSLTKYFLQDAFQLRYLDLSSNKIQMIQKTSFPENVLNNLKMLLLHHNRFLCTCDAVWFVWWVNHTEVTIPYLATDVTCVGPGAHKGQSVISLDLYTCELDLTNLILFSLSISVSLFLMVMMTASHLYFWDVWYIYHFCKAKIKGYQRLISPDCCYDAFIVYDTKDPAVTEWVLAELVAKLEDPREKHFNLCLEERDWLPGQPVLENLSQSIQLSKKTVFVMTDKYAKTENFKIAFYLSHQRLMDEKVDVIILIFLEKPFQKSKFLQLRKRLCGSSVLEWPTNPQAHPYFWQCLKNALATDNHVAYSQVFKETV
# Assay: HEK-TLR7 NF-κB-luciferase reporter, R848 stimulation
# Type: cell-based
# Settings: ASO 100 nM; relative to R848 only, given as fraction
row,Sequence,TLR7 100 nM (averaged NF-κB-Luciferase level relative to R848 condition)
1,"AAAGGACTGAGGAAAG (antisense; LNA-modified, pattern not given here) [CAMSAP1-6273 LNA KL]",0.513
2,"AACACTTCGTGGGGTC (antisense; LNA-modified, pattern not given here) [HPRT LNA-666 V1]",0.899
3,"AACCCCTTTCACCATC (antisense; LNA-modified, pattern not given here) [MB21D1-689 LNA KL]",0.771
4,"AATCCAACAAAGTCTG (antisense; LNA-modified, pattern not given here) [HPRT LNA-692 KL]",0.727
5,"ACCACGTCTGCTCTAA (antisense; LNA-modified, pattern not given here) [CAMSAP1-1635 LNA KL]",1.078
6,"ACGTTCAGTCCTGTCC (antisense; LNA-modified, pattern not given here) [HPRT LNA-294 V1]",0.601
7,"ACTTCGTGGGGTCCTT (antisense; LNA-modified, pattern not given here) [HPRT LNA-663 V1]",0.804
8,"AGATTTCAGAGCAGCT (antisense; LNA-modified, pattern not given here) [EGFR-4885 LNA KL]",0.438
9,"AGCTTCGAGGCCCCAG (antisense; LNA-modified, pattern not given here) [MB21D1-616 LNA V1]",0.554
10,"AGGACTCCAGATGTTT (antisense; LNA-modified, pattern not given here) [HPRT LNA pos cont]",0.437
11,"AGGCCCTTCGCACTTC (antisense; LNA-modified, pattern not given here) [EGFR-1225 LNA V1]",0.737
12,"AGGTCTTGGCTTCGTG (antisense; LNA-modified, pattern not given here) [MB21D1-524 LNA V1]",0.457
13,"AGTGTTGAGATACTCG (antisense; LNA-modified, pattern not given here) [EGFR-3652 LNA KL]",0.559
14,"ATCTGGCAGCCCATCA (antisense; LNA-modified, pattern not given here) [CTNN2B-2516 LNA V1]",0.663
15,"ATGGCCTCCCATCTCC (antisense; LNA-modified, pattern not given here) [HPRT LNA-330 V1]",0.550
16,"ATGTGATGGCCTCCCA (antisense; LNA-modified, pattern not given here) [HPRT LNA-335 V1]",0.499
17,"CACTTCGTGGGGTCCT (antisense; LNA-modified, pattern not given here) [HPRT LNA-664 V1]",0.868

row,Sequence,TLR7 100 nM (averaged NF-κB-Luciferase level relative to R848 condition)
1,"CATCCACCACGTCGTC (antisense; LNA-modified, pattern not given here) [EGFR-3266 LNA V1]",0.741
2,"CCAACACTTCGTGGGG (antisense; LNA-modified, pattern not given here) [HPRT LNA-668 V1]",0.808
3,"CCACATCCTGTGGCTC (antisense; LNA-modified, pattern not given here) [CAMSAP1-2906 LNA V1]",0.789
4,"CCACTTGGCAGACCAT (antisense; LNA-modified, pattern not given here) [CTNN2B-1575 LNA V1]",0.765
5,"CCAGCAGGTCAGCAAA (antisense; LNA-modified, pattern not given here) [HPRT LNA-388 KL]",1.101
6,"CCCACTTGGCAGACCA (antisense; LNA-modified, pattern not given here) [CTNN2B-1576 LNA V1]",1.024
7,"CCTCCCATCTCCTTCA (antisense; LNA-modified, pattern not given here) [HPRT LNA-326 V1]",0.758
8,"CCTTGCACGTGGCTTC (antisense; LNA-modified, pattern not given here) [EGFR-1013 LNA V1]",0.617
9,"CGCTTTTCTGTCTGGT (antisense; LNA-modified, pattern not given here) [CTNN2B-311 LNA KL]",0.393
10,"CGGCCTCGGAAGCTCT (antisense; LNA-modified, pattern not given here) [MB21D1-168 LNA V1]",0.594
11,"CGTATTATAGCCGATT (antisense; LNA-modified, pattern not given here) [NC1 LNA PS 3-10-3]",0.754
12,"CTGCAGCTTCCTTGTC (antisense; LNA-modified, pattern not given here) [CTNN2B-2136 LNA V1]",0.467
13,"CTTCGTGGGGTCCTTT (antisense; LNA-modified, pattern not given here) [HPRT LNA-662 V1]",0.685
14,"CTTGAAGCATCGTATC (antisense; LNA-modified, pattern not given here) [CTNN2B-3648 LNA KL]",0.363
15,"CTTGGCTTCGTGGAGC (antisense; LNA-modified, pattern not given here) [MB21D1-520 LNA V1]",0.806
16,"GAAAGGTTATGCAAGG (antisense; LNA-modified, pattern not given here) [CTNN2B-916 LNA KL]",0.166
17,"GACTATACGCGCAATA (antisense; LNA-modified, pattern not given here) [NC5 LNA PS 3-10-3]",0.282

# Same assay, conditions: ASO 500 nM; relative to R848 only, given as fraction
row,Sequence,TLR7 500 nM (averaged NF-κB-Luciferase level relative to R848 condition)
1,"AAAGGACTGAGGAAAG (antisense; LNA-modified, pattern not given here) [CAMSAP1-6273 LNA KL]",0.267
2,"AACACTTCGTGGGGTC (antisense; LNA-modified, pattern not given here) [HPRT LNA-666 V1]",0.445
3,"AACCCCTTTCACCATC (antisense; LNA-modified, pattern not given here) [MB21D1-689 LNA KL]",0.426
4,"AATCCAACAAAGTCTG (antisense; LNA-modified, pattern not given here) [HPRT LNA-692 KL]",0.433
5,"ACCACGTCTGCTCTAA (antisense; LNA-modified, pattern not given here) [CAMSAP1-1635 LNA KL]",0.532
6,"ACGTTCAGTCCTGTCC (antisense; LNA-modified, pattern not given here) [HPRT LNA-294 V1]",0.136
7,"ACTTCGTGGGGTCCTT (antisense; LNA-modified, pattern not given here) [HPRT LNA-663 V1]",0.736
8,"AGATTTCAGAGCAGCT (antisense; LNA-modified, pattern not given here) [EGFR-4885 LNA KL]",0.021
9,"AGCTTCGAGGCCCCAG (antisense; LNA-modified, pattern not given here) [MB21D1-616 LNA V1]",0.111
10,"AGGACTCCAGATGTTT (antisense; LNA-modified, pattern not given here) [HPRT LNA pos cont]",0.293
11,"AGGCCCTTCGCACTTC (antisense; LNA-modified, pattern not given here) [EGFR-1225 LNA V1]",0.164
12,"AGGTCTTGGCTTCGTG (antisense; LNA-modified, pattern not given here) [MB21D1-524 LNA V1]",0.050
13,"AGTGTTGAGATACTCG (antisense; LNA-modified, pattern not given here) [EGFR-3652 LNA KL]",0.115
14,"ATCTGGCAGCCCATCA (antisense; LNA-modified, pattern not given here) [CTNN2B-2516 LNA V1]",0.279
15,"ATGGCCTCCCATCTCC (antisense; LNA-modified, pattern not given here) [HPRT LNA-330 V1]",0.117
16,"ATGTGATGGCCTCCCA (antisense; LNA-modified, pattern not given here) [HPRT LNA-335 V1]",0.128
17,"CACTTCGTGGGGTCCT (antisense; LNA-modified, pattern not given here) [HPRT LNA-664 V1]",0.240

row,Sequence,TLR7 500 nM (averaged NF-κB-Luciferase level relative to R848 condition)
1,"CATCCACCACGTCGTC (antisense; LNA-modified, pattern not given here) [EGFR-3266 LNA V1]",0.353
2,"CCAACACTTCGTGGGG (antisense; LNA-modified, pattern not given here) [HPRT LNA-668 V1]",0.446
3,"CCACATCCTGTGGCTC (antisense; LNA-modified, pattern not given here) [CAMSAP1-2906 LNA V1]",0.363
4,"CCACTTGGCAGACCAT (antisense; LNA-modified, pattern not given here) [CTNN2B-1575 LNA V1]",0.470
5,"CCAGCAGGTCAGCAAA (antisense; LNA-modified, pattern not given here) [HPRT LNA-388 KL]",0.942
6,"CCCACTTGGCAGACCA (antisense; LNA-modified, pattern not given here) [CTNN2B-1576 LNA V1]",0.639
7,"CCTCCCATCTCCTTCA (antisense; LNA-modified, pattern not given here) [HPRT LNA-326 V1]",0.843
8,"CCTTGCACGTGGCTTC (antisense; LNA-modified, pattern not given here) [EGFR-1013 LNA V1]",0.281
9,"CGCTTTTCTGTCTGGT (antisense; LNA-modified, pattern not given here) [CTNN2B-311 LNA KL]",0.142
10,"CGGCCTCGGAAGCTCT (antisense; LNA-modified, pattern not given here) [MB21D1-168 LNA V1]",0.139
11,"CGTATTATAGCCGATT (antisense; LNA-modified, pattern not given here) [NC1 LNA PS 3-10-3]",0.226
12,"CTGCAGCTTCCTTGTC (antisense; LNA-modified, pattern not given here) [CTNN2B-2136 LNA V1]",0.053
13,"CTTCGTGGGGTCCTTT (antisense; LNA-modified, pattern not given here) [HPRT LNA-662 V1]",0.233
14,"CTTGAAGCATCGTATC (antisense; LNA-modified, pattern not given here) [CTNN2B-3648 LNA KL]",0.044
15,"CTTGGCTTCGTGGAGC (antisense; LNA-modified, pattern not given here) [MB21D1-520 LNA V1]",0.098
16,"GAAAGGTTATGCAAGG (antisense; LNA-modified, pattern not given here) [CTNN2B-916 LNA KL]",0.101
17,"GACTATACGCGCAATA (antisense; LNA-modified, pattern not given here) [NC5 LNA PS 3-10-3]",0.098

# Same assay, conditions: MOE-modified ASO at 100 nM; averaged NF-κB-Luciferase relative to R848 condition
row,Sequence,TLR7 100 nM
1,"ACACTTCGTGGGGTCCTTTT (antisense; 2'-MOE modified, pattern not given here) [HPRT-663 MOE]",0.403

# Same assay, conditions: MOE-modified ASO at 500 nM; averaged NF-κB-Luciferase relative to R848 condition
row,Sequence,TLR7 500 nM
1,"ACACTTCGTGGGGTCCTTTT (antisense; 2'-MOE modified, pattern not given here) [HPRT-663 MOE]",0.235
